Data from patent US10894059B2, “NADH compound composition, and preparation and use thereof” (BONTAC BIO-ENGINEERING (SHENZHEN) CO., LTD, priority 2017, dated 2021).

Key:
[1] = system: mice fed with high fat feed; assay: Comparative pharmacological evaluation in obese mice (high fat feed model); type: in vivo; conditions: gavage once a day, 50 mg according to L-carnitine, 4 weeks
Protocol: Fifty male mice are selected at 6 weeks of age. The basal feed is fed for two weeks before the start of the experiment, and the initial body weight is 26±2 g. All experimental groups are randomly divided into 5 groups of 10 each, and the groups were as follows. (1) obesity experiment group: 1 group; (2) obesity experiment group: 2 groups; (3) obese control group; (4) obese blank group; (5) normal blank group Cage feeding, 5 in 1 cage; ambient temperature of 22±2° C., humidity of 45˜65%; the light illumination alternates for 12 h, and the mice are free to eat and drink. Among them, the normal blank group is fed with normal feed, and the other 4 groups are fed with high fat feed; changes in body weight are recorded twice a week; the feeding process lasts 6 weeks to establish the model. Group (1) is given a solution of the NADH compound composition prepared in Embodiment 1 by gavage once a day; Group (2) is given a mixture of NADH and L-carnitine in Embodiment 1 (without other ingredients) by gavage once a day; Group (3) is given L-carnitine by gavage once a day; the amount of administration for Group (1), Group (2) and Group (3) is 50 mg according to L-carnitine; during the period, 5 groups of mice are fed with normal diet in free diet, and continued to be observed for 4 weeks. […]

[2] = people taking L-carnitine for weight loss, as much as 1˜3 g; cited from earlier work

## C[N+](C)(C)C[C@H](O)CC(=O)[O-] [L-carnitine, β-hydroxy γ-trimethylammonium butyrate]
[1]; (fat around kidney + fat around testicles)/body weight after test*100
  Body fat ratio (%): 2.35 ± 2.69%
[1]; weight growth/experimental initial weight*100
  Body weight growth rate (%): 44.98 ± 3.44%
[2]
  absolute bioavailability: 15.9±4.9%
